{"source": "ChEMBL document CHEMBL1154464", "about": "“Constrained analogues of tocainide as potent skeletal muscle sodium channel blockers towards the development of antimyotonic agents” (Eur J Med Chem, 2008)", "key": {"[1]": {"assay": "Blockade of Nav1.4 sodium channel in frog semitendinosus muscle fibres assessed as phasic block at 10 Hz stimulation frequency by vaseline-gap voltage clamp method", "assay_type": "tissue-based, Pelophylax lessonae"}, "[2]": {"assay": "Blockade of Nav1.4 sodium channel in frog semitendinosus muscle fibres assessed as tonic block elicited by infrequent depolarizing pulses at a frequency of 0.3 Hz by vaseline-gap voltage clamp method", "assay_type": "tissue-based, Pelophylax lessonae"}, "Pelophylax lessonae": {"tested_on": "Pelophylax lessonae", "assay": "Ratio of IC50 for tonic blockade of Nav1.4 sodium channel to phasic blockade of Nav1.4 sodium channel in frog semitendinosus muscle fibres", "assay_type": "tissue-based"}}, "data": [{"smiles": "Cc1cccc(C)c1NC(=O)C1CCCN(Cc2ccccc2)C1", "note": "(configuration not stated)", "values": [{"measurement": "IC50", "setting": "[1]", "value": 4.5, "unit": "µM"}, {"measurement": "IC50", "setting": "[2]", "value": 38.5, "unit": "µM"}]}, {"smiles": "Cc1cccc(C)c1NC(=O)C(C)N", "note": "(configuration not stated) [TOCAINIDE]", "values": [{"measurement": "IC50", "setting": "[1]", "value": 273, "unit": "µM"}, {"measurement": "IC50", "setting": "[2]", "value": 581, "unit": "µM"}]}, {"smiles": "Cc1cccc(C)c1NC(=O)C1CN(Cc2ccccc2)CCN1", "note": "(configuration not stated)", "values": [{"measurement": "Ratio IC50", "setting": "Pelophylax lessonae", "value": 13}, {"measurement": "IC50", "setting": "[1]", "value": 2.4, "unit": "µM"}, {"measurement": "IC50", "setting": "[2]", "value": 31.6, "unit": "µM"}]}]}
